{"source": "patent US12686687B2", "about": "“Compounds and uses thereof” (Foghorn Therapeutics Inc., priority 2019, dated 2026)"}
{"molecular_target": "T1, Nanoluciferase-BRD9 fusion protein (3×FLAG-NLuc-BRD9) in SYO-1 cells (Homo sapiens, UniProt Q9H8M2)", "T1 construct": "expressed in transfected cells; host or cells: SYO-1", "T1 sequence (Q9H8M2 1-597)": "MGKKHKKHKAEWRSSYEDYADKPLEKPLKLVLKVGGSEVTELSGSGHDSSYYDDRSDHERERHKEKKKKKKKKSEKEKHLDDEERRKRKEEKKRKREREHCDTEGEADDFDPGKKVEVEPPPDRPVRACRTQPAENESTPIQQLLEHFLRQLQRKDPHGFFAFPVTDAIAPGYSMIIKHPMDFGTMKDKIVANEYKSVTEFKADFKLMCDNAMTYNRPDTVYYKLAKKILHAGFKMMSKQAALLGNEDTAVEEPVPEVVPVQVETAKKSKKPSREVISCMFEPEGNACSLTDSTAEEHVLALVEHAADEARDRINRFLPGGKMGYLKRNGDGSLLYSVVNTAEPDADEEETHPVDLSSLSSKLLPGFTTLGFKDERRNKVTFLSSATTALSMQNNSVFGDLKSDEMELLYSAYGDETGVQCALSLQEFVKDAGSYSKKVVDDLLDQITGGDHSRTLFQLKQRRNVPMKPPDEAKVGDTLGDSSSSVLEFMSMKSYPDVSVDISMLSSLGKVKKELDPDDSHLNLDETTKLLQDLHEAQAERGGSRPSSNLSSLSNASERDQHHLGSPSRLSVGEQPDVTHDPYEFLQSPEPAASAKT", "assay": "SYO1 BRD9 NanoLuc degradation assay", "assay_type": "cell-based", "settings": "Table 6B; SYO-1 cells expressing 3×FLAG-NLuc-BRD9, 6 hours incubation, 1 μM top dose; read-out: SYO1 BRD9-NanoLuc degradation IC50", "method": "(§1) Procedure: A stable SYO-1 cell line expressing 3×FLAG-NLuc-BRD9 was generated. On day 0 cells were seeded in 30 μL media into each well of 384-well cell culture plates. The seeding density was 8000 cells/well. On day 1, cells were treated with 30 nL DMSO or 30 nL of 3-fold serially DMSO-diluted compounds (10 points in duplicates with 1 μM as final top dose). Subsequently plates were incubated for 6 hours in a standard tissue culture incubator and equilibrated at room temperature for 15 minutes. Nanoluciferase activity was measured by adding 15 μL of freshly prepared Nano-Glo Luciferase Assay Reagent (Promega N1130), shaking the plates for 10 minutes and reading the bioluminescence using an EnVision reader. • Results: The Inhibition % was calculated using the following formula: % Inhibition=100×(LumHC−LumSample)/(LumHC−LumLC). DMSO treated cells are employed as High Control (HC) and 1 μM of a known BRD9 degrader standard treated cells are employed as Low Control (LC).", "units": {"DC50": "nM"}}
{"smiles": "COc1cc(-c2cn(C)c(=O)c3cc(C(=O)NC4CCN(CCCCCOc5cccc6c5C(=O)N(C5CCC(=O)NC5=O)C6=O)CC4F)sc23)cc(OC)c1CN(C)C", "note": "(centres unmarked) [Compound D84]", "DC50": "< 10"}
{"smiles": "COc1cc(-c2cn(C)c(=O)c3cc(C(=O)NC4CCN(CCCCCOc5ccc6c(c5)C(=O)N(C5CCC(=O)NC5=O)C6=O)CC4F)sc23)cc(OC)c1CN(C)C", "note": "(centres unmarked) [Compound D85]", "DC50": "< 10"}
{"smiles": "COc1cc(-c2cn(C)c(=O)c3cc(C(=O)NC4CCN(CCCCN5CCN(c6ccc7c(c6)C(=O)N(C6CCC(=O)NC6=O)C7=O)CC5)CC4)sc23)cc(OC)c1CN(C)C", "note": "(centres unmarked) [Compound D86]", "DC50": "< 10"}
{"smiles": "COc1cc(-c2cn(C)c(=O)c3cc(C(=O)NC4CCCN(CCCCCOc5ccc6c(c5)C(=O)N(C5CCC(=O)NC5=O)C6=O)CC4)sc23)cc(OC)c1CN(C)C", "note": "(centres unmarked) [Compound D87]", "DC50": "< 10"}
{"smiles": "COc1cc(-c2cn(C)c(=O)c3cc(C(=O)NC4CCCN(CCCCCOc5cccc6c5C(=O)N(C5CCC(=O)NC5=O)C6=O)CC4)sc23)cc(OC)c1CN(C)C", "note": "(centres unmarked) [Compound D88]", "DC50": "> 10"}
{"smiles": "COc1cc(-c2cn(C)c(=O)c3cc(C(=O)NC4CCN(CCCCCOc5ccc6c(c5)C(=O)N(C5CCC(=O)NC5=O)C6=O)CC4)sc23)cc(OC)c1CN(C)C", "note": "(centres unmarked) [Compound D89]", "DC50": "< 10"}
{"smiles": "COc1cc(-c2cn(C)c(=O)c3cc(C(=O)NC4CCN(CCCCCOc5ccc6c(c5)C(=O)N(C5CCC(=O)NC5=O)C6=O)CC4(F)F)sc23)cc(OC)c1CN(C)C", "note": "(centres unmarked) [Compound D90]", "DC50": "< 10"}
{"molecular_target": "T1, Nanoluciferase-BRD9 fusion protein (3×FLAG-NLuc-BRD9) in SYO-1 cells", "assay": "SYO1 BRD9 NanoLuc degradation assay", "assay_type": "cell-based", "settings": "Table 6C; SYO-1 cells expressing 3×FLAG-NLuc-BRD9, 6 hours incubation, 1 μM top dose; read-out: SYO1 BRD9-NanoLuc degradation IC50", "method": "as §1", "units": {"DC50": "nM"}}
{"smiles": "COc1cc(-c2cn(C)c(=O)c3cc(C#N)sc23)cc(OC)c1CN1CC(C#Cc2ccc3c(c2)C(=O)N(C2CCC(=O)NC2=O)C3)C1", "note": "(centres unmarked) [Compound D91]", "DC50": "< 10"}
{"smiles": "COc1cc(-c2cn(C)c(=O)c3ccsc23)cc(OC)c1CN1CC(C#Cc2ccc3c(c2)C(=O)N(C2CCC(=O)NC2=O)C3)C1", "note": "(centres unmarked) [Compound D92]", "DC50": "< 10"}
{"smiles": "COc1cc(Cl)cc(-c2cn(C)c(=O)c3cc(C(=O)NC4CCN(c5ccc6c(c5)C(=O)N(C5CCC(=O)NC5=O)C6)CC4)sc23)c1", "note": "(centres unmarked) [Compound D93]", "DC50": "< 10"}
{"smiles": "COc1cc(-c2cn(C)c(=O)c3cc(N4CCC4)sc23)cc(OC)c1CN1CCC(CCN2CCN(c3ccc4c(c3)C(=O)N(C3CCC(=O)NC3=O)C4)CC2)CC1", "note": "(centres unmarked) [Compound D94]", "DC50": "< 10"}
{"smiles": "COc1cc(-c2cn(C)c(=O)c3cc(C(=O)Nc4cccc(OC5CCC(=O)NC5=O)c4)sc23)cc(OC)c1CN(C)C", "note": "(centres unmarked) [Compound D95]", "DC50": "> 100"}
{"smiles": "COc1cc(OC)cc(-c2cn(C)c(=O)c3cc(C(=O)NC4CCN(c5cccc(OC6CCC(=O)NC6=O)c5)CC4)sc23)c1", "note": "(centres unmarked) [Compound D96]", "DC50": "< 10"}
{"smiles": "CNc1cc2c(=O)n(C)cc(-c3cc(OC)c(CN4CCC5(CC4)CN(c4ccc6c(c4)C(=O)N(C4CCC(=O)NC4=O)C6)C5)c(OC)c3)c2s1", "note": "(centres unmarked) [Compound D97]", "DC50": "< 10"}
{"smiles": "COc1cc(OC)cc(-c2cn(C)c(=O)c3cc(C(=O)NC4CCN(C5CCN(c6ccc7c(c6)C(=O)N(C6CCC(=O)NC6=O)C7)CC5)CC4(F)F)sc23)c1", "note": "(centres unmarked) [Compound D98]", "DC50": "< 10"}
{"smiles": "COc1cc(-c2cn(C)c(=O)c3ccsc23)cc(OC)c1CN1CCC(CN2CCC3(CC2)CN(c2ccc4c(c2)C(=O)N(C2CCC(=O)NC2=O)C4)C3)CC1", "note": "(centres unmarked) [Compound D99]", "DC50": "< 10"}
{"smiles": "COc1cc2c(=O)n(C)cc(-c3cc(OC)c(CN4CCC(CN5CCC6(CC5)CN(c5ccc7c(c5)C(=O)N(C5CCC(=O)NC5=O)C7)C6)CC4)c(OC)c3)c2s1", "note": "(centres unmarked) [Compound D100]", "DC50": "< 10"}
{"smiles": "COc1cc(-c2cn(C)c(=O)c3cc(C#N)sc23)cc(OC)c1CN1CCC(CN2CCC3(CC2)CN(c2ccc4c(c2)C(=O)N(C2CCC(=O)NC2=O)C4)C3)CC1", "note": "(centres unmarked) [Compound D101]", "DC50": "< 10"}
{"smiles": "COc1cc(-c2cn(C)c(=O)c3cc(C(=O)NC4CCN(CCC5CCN(c6ccc7c(c6)CN(C6CCC(=O)NC6=O)C7=O)CC5)CC4(F)F)sc23)cc(OC)c1CN(C)C", "note": "(centres unmarked) [Compound D102]", "DC50": "< 10"}
{"smiles": "Cn1cc(-c2cccc(C(F)(F)F)c2)c2sc(C(=O)NC3CN(c4ccc5c(c4)C(=O)N(C4CCC(=O)NC4=O)C5)C3)cc2c1=O", "note": "(centres unmarked) [Compound D103]", "DC50": "< 10"}
{"smiles": "COc1cc(-c2cn(C)c(=O)c3cc(C(=O)NC4CCN(C)CC4(F)F)sc23)cc(OC)c1CN1CC(CN2CCC3(CC2)CN(c2ccc4c(c2)CN(C2CCC(=O)NC2=O)C4=O)C3)C1", "note": "(centres unmarked) [Compound D104]", "DC50": "< 10"}
{"smiles": "COc1cc(-c2cn(C)c(=O)c3cc(C(=O)NC4CCN(c5ccc(OC6CCC(=O)NC6=O)cc5)CC4)sc23)cc(OC)c1CN(C)C", "note": "(centres unmarked) [Compound D105]", "DC50": "< 10"}
{"smiles": "COc1cc(-c2cn(C)c(=O)c3ccsc23)cc(OC)c1CN1CCC2CN(c3ccc4c(c3)C(=O)N(C3CCC(=O)NC3=O)C4)CCC2C1", "note": "(centres unmarked) [Compound D106]", "DC50": "< 10"}
{"smiles": "COc1cc(-c2cn(C)c(=O)c3ccsc23)cc(OC)c1CN1CCC2(CC1)CN(c1ccc3c(c1)C(=O)N(C1CCC(=O)N(COC(=O)[C@@H](N)C(C)C)C1=O)C3=O)C2", "note": "(some centres unmarked) [Compound D107]", "DC50": "< 10"}
{"smiles": "COc1cc(-c2cn(C)c(=O)c3cc(C(=O)NC4CCN(c5cccc(OC6CCC(=O)NC6=O)c5)CC4)sc23)cc(OC)c1CN(C)C", "note": "(centres unmarked) [Compound D108]", "DC50": "< 10"}
{"smiles": "COc1cc(OC)cc(-c2cn(C)c(=O)c3cc(C(=O)NC4CCN(c5ccc6c(c5)C(=O)N(C5CCC(=O)NC5=O)C6)CC4)sc23)c1", "note": "(centres unmarked) [Compound D109]", "DC50": "< 10"}
{"smiles": "COc1cc(-c2cn(C)c(=O)c3cc(C(C)C)sc23)cc(OC)c1CN1CCC2(CC1)CN(c1ccc3c(c1)C(=O)N(C1CCC(=O)NC1=O)C3)C2", "note": "(centres unmarked) [Compound D110]", "DC50": "< 10"}
{"smiles": "COc1cc(-c2cn(C)c(=O)c3ccsc23)cc(OC)c1CN1CCC2(CN(c3ccc4c(c3)C(=O)N(C3CCC(=O)NC3=O)C4)C2)C(F)(F)C1", "note": "(centres unmarked) [Compound D111]", "DC50": "< 10"}
{"smiles": "COc1cc(-c2cn(C)c(=O)c3cc(C(=O)N[C@H]4CCN(CCN5CCN(c6ccc7c(c6)C(=O)N(C6CCC(=O)NC6=O)C7)CC5)CC4(F)F)sc23)cc(OC)c1CN(C)C", "note": "(some centres unmarked) [Compound D112]", "DC50": "< 10"}
{"smiles": "COc1cc(-c2cn(C)c(=O)c3ccsc23)cc(OC)c1CN1CCC2CCN(c3ccc4c(c3)C(=O)N(C3CCC(=O)NC3=O)C4)CC2C1", "note": "(centres unmarked) [Compound D113]", "DC50": "< 10"}
{"smiles": "COc1cc(-c2cn(C)c(=O)c3cc(C(=O)NC4CCN(c5ccc6c(c5)C(=O)N(C5CCC(=O)NC5=O)C6)C4)sc23)cc(OC)c1CN(C)C", "note": "(centres unmarked) [Compound D114]", "DC50": "< 10"}
{"smiles": "COc1cc(OC)cc(-c2cn(C)c(=O)c3cc(C(=O)NC4CN(c5ccc6c(c5)C(=O)N(C5CCC(=O)NC5=O)C6)C4)sc23)c1", "note": "(centres unmarked) [Compound D115]", "DC50": "< 10"}
{"smiles": "Cn1cc(-c2cccc(C(F)(F)F)c2)c2sc(C(=O)NC3CC4(CCN(c5ccc6c(c5)C(=O)N(C5CCC(=O)NC5=O)C6)CC4)C3)cc2c1=O", "note": "(centres unmarked) [Compound D117]", "DC50": "< 10"}
{"smiles": "COc1cc(-c2cn(C)c(=O)c3cc(C(=O)NC4CCN(c5ccc6c(c5)C(=O)N(C5CCC(=O)NC5=O)C6)CC4(F)F)sc23)cc(F)c1CN(C)C", "note": "(centres unmarked) [Compound D118]", "DC50": "< 10"}
{"smiles": "COCc1cc2c(=O)n(C)cc(-c3cc(OC)c(CN4CCC5(CC4)CN(c4ccc6c(c4)C(=O)N(C4CCC(=O)NC4=O)C6)C5)c(OC)c3)c2s1", "note": "(centres unmarked) [Compound D119]", "DC50": "< 10"}
{"smiles": "COc1cc2c(=O)n(C)cc(-c3cc(OC)c(CN4CCC5(CC4)CN(c4ccc6c(c4)C(=O)N(C4CCC(=O)NC4=O)C6)C5)c(OC)c3)c2s1", "note": "(centres unmarked) [Compound D120]", "DC50": "< 10"}
{"smiles": "COc1cc(-c2cn(C)c(=O)c3ccsc23)cc(OC)c1CN1CCC2CCN(c3ccc4c(c3)CN(C3CCC(=O)NC3=O)C4=O)CC2C1", "note": "(centres unmarked) [Compound D121]", "DC50": "< 10"}
{"smiles": "COc1cc(-c2cn(C)c(=O)c3ccsc23)cc(OC)c1C1CCN(c2ccc3c(c2)C(=O)N(C2CCC(=O)NC2=O)C3)C1", "note": "(centres unmarked) [Compound D122]", "DC50": "< 10"}
